Experiment [1] addresses T1, Ba/F3-FGFR3-transfected cells (Homo sapiens, UniProt P22607).
T1 construct: BAF3-FGFR3 (MIN IL3) pIC50; other: minus IL3
Nature of the experiment: Ba/F3-FGFR3 (minus IL3) cellular proliferation assay, Alamar Blue. The experiment is classed as cell-based. The method, boiled down:
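Compound dilutions were dispensed first, then 20000 FGFR3-transfected Ba/F3 cells per well in serum-containing RPMI-1640 were added. After 24 h incubation at 37° C, Alamar Blue was applied for 4 h before relative fluorescence units were recorded. In the minus-IL3 format cells grow without cytokine; the other format contains 10 ng/ml murine IL3.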
Background: The colour change of resazurin is a common sign of viable cells or microbes.

The target of another experiment is FGFR4 (h) (Homo sapiens, UniProt P22455). The experiment can be described thus: FGFR4 (enzymatic assay), TR-FRET. The experiment is classed as biochemical. The note with it: FGFR 4 pIC50, enzymatic assay; average values if tested multiple times.
Sequence of FGFR4 (h) (P22455 22-802): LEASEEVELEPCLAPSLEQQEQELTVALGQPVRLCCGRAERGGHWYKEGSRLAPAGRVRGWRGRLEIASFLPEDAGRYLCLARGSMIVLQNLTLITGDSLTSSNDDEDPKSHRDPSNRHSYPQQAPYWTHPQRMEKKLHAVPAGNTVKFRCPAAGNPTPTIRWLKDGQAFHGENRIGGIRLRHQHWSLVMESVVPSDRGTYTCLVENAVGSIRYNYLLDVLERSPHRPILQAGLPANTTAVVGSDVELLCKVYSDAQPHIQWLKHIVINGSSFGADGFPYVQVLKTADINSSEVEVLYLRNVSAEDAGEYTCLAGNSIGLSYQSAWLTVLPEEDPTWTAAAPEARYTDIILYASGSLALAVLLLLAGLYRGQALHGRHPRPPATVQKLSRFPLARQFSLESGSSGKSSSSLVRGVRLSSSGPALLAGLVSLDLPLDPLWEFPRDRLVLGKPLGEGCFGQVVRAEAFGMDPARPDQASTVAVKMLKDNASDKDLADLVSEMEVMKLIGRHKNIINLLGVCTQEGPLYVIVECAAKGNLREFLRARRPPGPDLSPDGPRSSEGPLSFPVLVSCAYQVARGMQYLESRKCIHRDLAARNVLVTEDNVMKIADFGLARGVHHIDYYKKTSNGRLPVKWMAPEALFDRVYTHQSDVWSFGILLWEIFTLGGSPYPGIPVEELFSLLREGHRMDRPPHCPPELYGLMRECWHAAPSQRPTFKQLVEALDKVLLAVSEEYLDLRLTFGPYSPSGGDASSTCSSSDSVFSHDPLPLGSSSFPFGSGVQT
The next experiment addresses FGFR3 (h) (Homo sapiens, UniProt P22607). Nature of the experiment: FGFR3 (enzymatic assay), TR-FRET. The experiment is classed as biochemical. The note with it: average values if tested multiple times, read-out: FGFR 3 pIC50 (converted). An excerpt: Time-Resolved Fluorescence Resonance Energy Transfer (TR-FRET) signal (ex340 nm.
A general note: Time-resolved FRET reads energy transfer from a long-lived donor to a nearby acceptor.

The target of experiment [2] is T2, Ba/F3-KDR-transfected cells (Homo sapiens, UniProt P35968).
T2 construct: BAF3-KDR (MIN IL3) pIC50; other: minus IL3
T2 sequence (P35968 whole entry, change not shown): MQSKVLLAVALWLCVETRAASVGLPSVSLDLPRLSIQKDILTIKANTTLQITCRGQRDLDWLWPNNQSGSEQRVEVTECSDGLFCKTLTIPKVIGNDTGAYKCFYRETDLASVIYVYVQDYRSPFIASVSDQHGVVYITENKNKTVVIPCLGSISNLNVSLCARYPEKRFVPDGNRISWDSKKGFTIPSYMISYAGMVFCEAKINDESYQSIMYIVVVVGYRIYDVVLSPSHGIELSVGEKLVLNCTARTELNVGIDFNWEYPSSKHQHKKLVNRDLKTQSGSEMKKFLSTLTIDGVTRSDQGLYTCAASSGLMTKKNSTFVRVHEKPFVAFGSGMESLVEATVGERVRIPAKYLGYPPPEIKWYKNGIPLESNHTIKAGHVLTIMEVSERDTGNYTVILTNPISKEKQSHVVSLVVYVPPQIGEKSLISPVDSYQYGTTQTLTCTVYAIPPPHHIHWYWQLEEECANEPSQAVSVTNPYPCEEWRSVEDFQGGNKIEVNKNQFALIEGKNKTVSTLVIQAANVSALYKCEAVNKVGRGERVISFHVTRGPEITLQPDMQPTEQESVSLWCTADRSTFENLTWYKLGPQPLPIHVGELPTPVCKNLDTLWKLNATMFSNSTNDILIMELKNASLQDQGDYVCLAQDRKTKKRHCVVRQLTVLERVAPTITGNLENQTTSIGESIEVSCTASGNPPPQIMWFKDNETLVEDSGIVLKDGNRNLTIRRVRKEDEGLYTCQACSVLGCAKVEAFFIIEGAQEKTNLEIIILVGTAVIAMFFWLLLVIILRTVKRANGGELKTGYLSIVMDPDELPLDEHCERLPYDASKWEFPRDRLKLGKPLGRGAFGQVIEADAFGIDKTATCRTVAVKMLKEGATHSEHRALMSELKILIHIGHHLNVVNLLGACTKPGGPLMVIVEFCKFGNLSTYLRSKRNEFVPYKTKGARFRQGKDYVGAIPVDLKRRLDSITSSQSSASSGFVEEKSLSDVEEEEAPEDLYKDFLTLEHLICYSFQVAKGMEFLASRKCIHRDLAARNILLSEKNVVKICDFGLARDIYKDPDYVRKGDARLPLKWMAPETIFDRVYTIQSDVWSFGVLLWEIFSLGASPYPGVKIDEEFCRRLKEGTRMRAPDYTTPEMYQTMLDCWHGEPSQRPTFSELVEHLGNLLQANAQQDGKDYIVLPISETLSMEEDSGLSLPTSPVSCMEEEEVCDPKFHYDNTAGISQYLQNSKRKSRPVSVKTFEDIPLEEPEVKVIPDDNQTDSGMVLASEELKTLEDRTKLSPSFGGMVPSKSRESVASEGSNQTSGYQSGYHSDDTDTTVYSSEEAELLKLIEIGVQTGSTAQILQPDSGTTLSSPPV
The experiment can be described thus: Ba/F3-KDR (minus IL3) cellular proliferation assay, Alamar Blue. The experiment is classed as cell-based. The method, boiled down:
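20000 cells/well, RPMI-1640 + 10% FBS + 2 mM L-Gln; compound 24 h, 37° C/5% CO2; Alamar Blue 4 h; RFU ex540/em590.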

Experiment [3] concerns Ba/F3-FGFR1-transfected cells. The experiment can be described thus: Ba/F3-FGFR1 (plus IL3) cellular proliferation assay, counterscreen with 10 ng/ml murine IL3. Type of experiment: cell-based. The note with it: plus IL3 (10 ng/ml murine IL3, counterscreen); read-out: BAF3-FGFR1 (PLUS IL3) pIC50 (converted). The method in brief:
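Ba/F3-FGFR1 cells (20000/well) in RPMI-1640 with 10% FBS exposed to compound for 24 h at 37° C., 5% CO2, then Alamar Blue (resazurin) added for 4 h; fluorescence read at ex 540/em 590 nm. Counterscreen run identically with 10 ng/ml murine IL3.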
(A counterscreen serves to expose hits that act by an unwanted route or on another target.)

Where a name gives a salt, the structure may show the parent alone. Where only a bound is given, the exact number is not on record here.

Sequence of FGFR3 (h) (P22607 23-806): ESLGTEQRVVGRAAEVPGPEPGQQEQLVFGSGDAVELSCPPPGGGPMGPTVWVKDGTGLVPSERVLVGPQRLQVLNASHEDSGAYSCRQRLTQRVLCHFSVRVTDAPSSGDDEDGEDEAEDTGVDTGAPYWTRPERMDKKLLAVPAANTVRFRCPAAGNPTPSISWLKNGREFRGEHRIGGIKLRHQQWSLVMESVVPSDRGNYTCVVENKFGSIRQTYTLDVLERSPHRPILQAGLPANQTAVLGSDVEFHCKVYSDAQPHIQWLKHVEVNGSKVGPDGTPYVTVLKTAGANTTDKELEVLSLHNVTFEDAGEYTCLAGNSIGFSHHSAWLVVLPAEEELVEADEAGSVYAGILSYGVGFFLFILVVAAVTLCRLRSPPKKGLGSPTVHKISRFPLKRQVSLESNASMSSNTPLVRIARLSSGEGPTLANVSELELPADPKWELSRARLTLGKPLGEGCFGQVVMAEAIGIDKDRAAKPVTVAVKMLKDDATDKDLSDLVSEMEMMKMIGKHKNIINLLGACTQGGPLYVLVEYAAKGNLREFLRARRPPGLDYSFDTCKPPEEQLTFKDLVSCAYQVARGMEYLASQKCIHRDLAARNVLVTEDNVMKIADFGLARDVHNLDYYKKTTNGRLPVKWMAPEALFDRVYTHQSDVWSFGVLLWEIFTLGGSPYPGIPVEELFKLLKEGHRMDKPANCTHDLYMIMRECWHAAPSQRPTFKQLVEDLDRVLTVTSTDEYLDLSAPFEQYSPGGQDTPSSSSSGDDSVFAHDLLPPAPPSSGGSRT
T1 sequence (P22607 whole entry, change not shown): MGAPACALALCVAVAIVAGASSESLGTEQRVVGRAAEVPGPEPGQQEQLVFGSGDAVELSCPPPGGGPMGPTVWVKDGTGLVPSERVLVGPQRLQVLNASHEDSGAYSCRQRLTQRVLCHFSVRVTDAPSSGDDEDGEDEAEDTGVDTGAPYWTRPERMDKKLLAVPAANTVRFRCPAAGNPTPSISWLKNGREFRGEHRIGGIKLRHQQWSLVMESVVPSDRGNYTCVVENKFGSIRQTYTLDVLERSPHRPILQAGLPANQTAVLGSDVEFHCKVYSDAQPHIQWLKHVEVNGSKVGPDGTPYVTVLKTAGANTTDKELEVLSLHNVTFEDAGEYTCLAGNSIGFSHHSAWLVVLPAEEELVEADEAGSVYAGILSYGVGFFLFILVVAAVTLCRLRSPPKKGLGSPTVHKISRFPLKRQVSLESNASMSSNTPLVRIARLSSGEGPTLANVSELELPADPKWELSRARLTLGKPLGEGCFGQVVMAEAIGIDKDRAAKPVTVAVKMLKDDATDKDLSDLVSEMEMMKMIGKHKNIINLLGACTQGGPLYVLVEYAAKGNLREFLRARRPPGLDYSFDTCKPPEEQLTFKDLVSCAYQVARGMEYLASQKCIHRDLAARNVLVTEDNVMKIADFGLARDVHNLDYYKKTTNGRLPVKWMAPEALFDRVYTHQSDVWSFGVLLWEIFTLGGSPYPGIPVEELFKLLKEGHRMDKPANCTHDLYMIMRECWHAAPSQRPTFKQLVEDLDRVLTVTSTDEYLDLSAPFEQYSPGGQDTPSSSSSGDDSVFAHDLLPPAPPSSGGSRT

Turning to `COc1cc(OC)cc(N(Cc2ncc[nH]2)c2ccc3ncc(-c4cnn(C)c4)nc3n2)c1` (racemic) [24-DL-tartrate salt], the “BAF3-FGFR3 (MIN IL3) pIC50” value in experiment [1] came out at 8.21. Further, the IC50 at FGFR4 (h) is 1.12 nM; on FGFR3 (h), 0.741 nM; in experiment [3] it was over 10000 nM. The “BAF3-KDR (MIN IL3) pIC50” value in experiment [2] came out at 6.30.

`COc1cc(OC)c(F)c(N(CC(O)COC(C)C)c2ccc3ncc(-c4cnn(C)c4)nc3n2)c1` (single isomer, unassigned) [Compound 75]: the “BAF3-FGFR3 (MIN IL3) pIC50” value in experiment [1] amounted to 7.75. Also, the IC50 against FGFR4 (h) is 2.24 nM; at FGFR3 (h), 1.95 nM; in experiment [3] it was over 10000 nM. The “BAF3-KDR (MIN IL3) pIC50” value in experiment [2] is listed as 6.16.

As to `COc1cc(OC)c(Cl)c(N(CC2CCC(=O)N2)c2ccc3ncc(-c4cnn(C)c4)nc3n2)c1Cl` (single isomer, unassigned) [Compound 88], the “BAF3-FGFR3 (MIN IL3) pIC50” value in experiment [1] was found to be 6.57. Further, the IC50 against FGFR4 (h) is 42.7 nM; on FGFR3 (h), 6.76 nM; in experiment [3], over 10000 nM. Also, the “BAF3-KDR (MIN IL3) pIC50” value in experiment [2] amounted to 5.14.

For `COc1cc(/N=c2\ccc3ncc(-c4cnn(C)c4)nc3n2CC2COC(=O)N2)c(F)c(OC)c1` (single isomer, unassigned) [Compound 112], in experiment [1], the “BAF3-FGFR3 (MIN IL3) pIC50” value is given as about 7.27. The IC50 is 2.04 nM at FGFR4 (h), 0.776 nM at FGFR3 (h) and over 10000 nM in experiment [3]. For the same compound, the “BAF3-KDR (MIN IL3) pIC50” value in experiment [2] turned out to be 5.65.

As for `COc1cc(OC)c(F)c(N(Cc2ncc[nH]2)c2ccc3ncc(-c4cnn(C)c4)nc3n2)c1` [Compound 23], the “BAF3-FGFR3 (MIN IL3) pIC50” value in experiment [1] is listed as about 8.40. Also, the IC50 is 1 nM against FGFR4 (h), 1.07 nM on FGFR3 (h) and over 10000 nM in experiment [3]. For the same compound, the “BAF3-KDR (MIN IL3) pIC50” value in experiment [2] is reported as 6.74.

As to `COc1cc(OC)cc(N(Cc2ncc[nH]2)c2ccc3ncc(-c4cnn(C)c4)nc3n2)c1` [Compound 24], the “BAF3-FGFR3 (MIN IL3) pIC50” value in experiment [1] was determined as 8.20. In addition, the IC50 against FGFR4 (h) was 0.741 nM; at FGFR3 (h), 0.603 nM; in experiment [3] it was over 10000 nM. Also, the “BAF3-KDR (MIN IL3) pIC50” value in experiment [2] is 6.22.

`COc1cc(OC)c(F)c(N(CCO)c2ccc3ncc(-c4cnn(C)c4)nc3n2)c1` [Compound 40]: the “BAF3-FGFR3 (MIN IL3) pIC50” value in experiment [1] is given as 7.84. Moreover, the IC50 on FGFR4 (h) is 1.82 nM; at FGFR3 (h), 0.646 nM; in experiment [3] it was over 10000 nM. Further, the “BAF3-KDR (MIN IL3) pIC50” value in experiment [2] was 6.00.

Take `COc1cc(OC)c(F)c(N(Cc2c[nH]cn2)c2ccc3ncc(-c4cnn(C)c4)nc3n2)c1` [Compound 41]: in experiment [1], the “BAF3-FGFR3 (MIN IL3) pIC50” value stood at 8.08. Besides, the IC50 was 0.759 nM against FGFR4 (h), 0.589 nM at FGFR3 (h) and over 10000 nM in experiment [3]. Further, the “BAF3-KDR (MIN IL3) pIC50” value in experiment [2] turned out to be 6.70.

As for `COc1cc(OC)c(Cl)c(N(Cc2ncc[nH]2)c2ccc3ncc(-c4cnn(C)c4)nc3n2)c1` [Compound 42], the “BAF3-FGFR3 (MIN IL3) pIC50” value in experiment [1] is given as about 8.3. Also, the figures for the IC50 (against FGFR4 (h); on FGFR3 (h); in experiment [3]) were 3.02 nM, 2.14 nM and over 10000 nM, respectively. The “BAF3-KDR (MIN IL3) pIC50” value in experiment [2] stood at 6.89.

As for `COc1cc(OC)c(F)c(N(CC2CCC(=O)N2)c2ccc3ncc(-c4cnn(C)c4)nc3n2)c1` (centres unmarked) [Compound 46], the “BAF3-FGFR3 (MIN IL3) pIC50” value in experiment [1] amounted to 7.42. Moreover, the values for the IC50 (against FGFR4 (h); at FGFR3 (h); in experiment [3]) were 3.89 nM, 1.51 nM and over 10000 nM, respectively. For the same compound, the “BAF3-KDR (MIN IL3) pIC50” value in experiment [2] amounted to 5.35.

For the compound `COc1cc(OC)c(F)c(N(CCCN2CCCC2=O)c2ccc3ncc(-c4cnn(C)c4)nc3n2)c1F` [Compound 56], in experiment [1], the “BAF3-FGFR3 (MIN IL3) pIC50” value turned out to be 7.87. Also, the IC50 against FGFR4 (h) is 2.29 nM; at FGFR3 (h), 2.75 nM; in experiment [3], over 10000 nM. For the same compound, the “BAF3-KDR (MIN IL3) pIC50” value in experiment [2] is reported as 6.60.

As for `COc1cc(OC)c(F)c(N(CC(O)COC(C)C)c2ccc3ncc(-c4cnn(C)c4)nc3n2)c1F` (centres unmarked) [Compound 63], in experiment [1], the “BAF3-FGFR3 (MIN IL3) pIC50” value was 7.97. Moreover, the IC50 is 6.03 nM at FGFR4 (h), 6.31 nM at FGFR3 (h) and over 10000 nM in experiment [3]. In addition, the “BAF3-KDR (MIN IL3) pIC50” value in experiment [2] stood at 6.58.

On to `COc1cc(OC)c(F)c(/N=c2\ccc3ncc(-c4cnn(C)c4)nc3n2CC(O)COC(C)C)c1F` (centres unmarked) [Compound 64], for which the “BAF3-FGFR3 (MIN IL3) pIC50” value in experiment [1] worked out at 8.12. Also, the IC50 against FGFR4 (h) is 1 nM; at FGFR3 (h) it was 0.832 nM; in experiment [3], over 10000 nM. Also, the “BAF3-KDR (MIN IL3) pIC50” value in experiment [2] turned out to be 6.31.

Take `COc1ccc(Cl)c(N(Cc2ncc[nH]2)c2ccc3ncc(-c4cnn(C)c4)nc3n2)c1Cl` [Compound 65]: the “BAF3-FGFR3 (MIN IL3) pIC50” value in experiment [1] is listed as 6.04. In addition, the IC50 was about 355 nM against FGFR4 (h), 34.7 nM on FGFR3 (h) and over 10000 nM in experiment [3]. Moreover, the “BAF3-KDR (MIN IL3) pIC50” value in experiment [2] is 5.06.

In the case of `COc1cc(OC)c(F)c(N(CCN)c2ccc3ncc(-c4cnn(C)c4)nc3n2)c1F` [Compound 67], the “BAF3-FGFR3 (MIN IL3) pIC50” value in experiment [1] came to 7.83. Besides, the IC50 on FGFR4 (h) was 2.75 nM; at FGFR3 (h), 1.2 nM; in experiment [3], over 10000 nM. In addition, the “BAF3-KDR (MIN IL3) pIC50” value in experiment [2] amounted to 6.59.

On to `COc1cc(OC)c(F)c(/N=c2\ccc3ncc(-c4cnn(C)c4)nc3n2CCN)c1F` [Compound 68], for which the “BAF3-FGFR3 (MIN IL3) pIC50” value in experiment [1] came to 7.70. In addition, the IC50 at FGFR4 (h) is 2 nM; on FGFR3 (h), 1.62 nM; in experiment [3], over 10000 nM. For the same compound, the “BAF3-KDR (MIN IL3) pIC50” value in experiment [2] came to 6.07.

As to `CNCCN(c1ccc2ncc(-c3cnn(C)c3)nc2n1)c1c(F)ccc(OC)c1Cl` [Compound 69], the “BAF3-FGFR3 (MIN IL3) pIC50” value in experiment [1] was found to be 6.76. For the same compound, the IC50 against FGFR4 (h) was 38.9 nM; at FGFR3 (h), 6.46 nM; in experiment [3] it was over 10000 nM. Besides, the “BAF3-KDR (MIN IL3) pIC50” value in experiment [2] was found to be 5.13.

Turning to `COc1ccc(F)c(N(Cc2ncc[nH]2)c2ccc3ncc(-c4cnn(C)c4)nc3n2)c1Cl` [Compound 73], the “BAF3-FGFR3 (MIN IL3) pIC50” value in experiment [1] came out at 7.46. In addition, the IC50 at FGFR4 (h) was 15.1 nM; at FGFR3 (h) it was 2.82 nM; in experiment [3] it was over 10000 nM. For the same compound, the “BAF3-KDR (MIN IL3) pIC50” value in experiment [2] worked out at 5.55.

As to `CNCCN(c1ccc2ncc(-c3cnn(C)c3)nc2n1)c1c(Cl)c(OC)cc(OC)c1Cl` [Compound 81], the “BAF3-FGFR3 (MIN IL3) pIC50” value in experiment [1] came to 6.67. Besides, the IC50 against FGFR4 (h) was 70.8 nM; at FGFR3 (h), 8.13 nM; in experiment [3], over 10000 nM. Moreover, the “BAF3-KDR (MIN IL3) pIC50” value in experiment [2] worked out at 5.36.

`CNCCN(c1ccc2ncc(-c3cnn(C)c3)nc2n1)c1c(Cl)ccc(OC)c1Cl` [Compound 83]: the “BAF3-FGFR3 (MIN IL3) pIC50” value in experiment [1] is given as about 5.66. The results for the IC50 (on FGFR4 (h); at FGFR3 (h); in experiment [3]) were 933 nM, 105 nM and over 10000 nM, respectively. Moreover, the “BAF3-KDR (MIN IL3) pIC50” value in experiment [2] is listed as under 5.

`CNCCn1/c(=N/c2c(Cl)ccc(OC)c2Cl)ccc2ncc(-c3cnn(C)c3)nc21` [Compound 84]: in experiment [1], the “BAF3-FGFR3 (MIN IL3) pIC50” value is about 5.11. In addition, the IC50 at FGFR4 (h) is 3550 nM; at FGFR3 (h), 363 nM; in experiment [3], over 10000 nM. Moreover, in experiment [2], the “BAF3-KDR (MIN IL3) pIC50” value is under 5.

As for `COc1cc(OC)c(F)c(N(Cc2nc[nH]n2)c2ccc3ncc(-c4cnn(C)c4)nc3n2)c1F` [Compound 85], the “BAF3-FGFR3 (MIN IL3) pIC50” value in experiment [1] was found to be 8.14. The IC50 on FGFR4 (h) was 2.24 nM; at FGFR3 (h) it was 2.14 nM; in experiment [3], over 10000 nM. The “BAF3-KDR (MIN IL3) pIC50” value in experiment [2] was 6.43.

(Values after patent publication US9309242B2, “Substituted pyrido[2,3-b]pyrazines as FGFR kinase inhibitors” (priority 2011, dated 2016).)
